Assay results taken from patent US5814627A, “3, 5-disubstituted and 3, 4, 5-trisubstituted 2-isoxazolines and isoxazoles, process for their preparation and their use as pharmaceuticals” (Hoechst Aktienegesellschaft, priority 1994, dated 1998).
Structures can show the parent of a compound that is named as a salt. Where two headings read alike, the source gives them in different places. One block for each molecule: values may come before it.

Tests used:
[1] = tested on: cyclooxygenase-dependent thrombocyte aggregation; test: Test 5: Cyclooxygenase-dependent thrombocyte aggregation; type: cell-based, human; conditions: arachidonic acid as inducer
Procedure: TEST 5. Cyclooxygenase-dependent thrombocyte aggregation
Platelet-rich plasma (PRP): to inhibit coagulation, human blood was treated with 1/10 of its volume of 3.8% sodium citrate solution. Centrifugation then takes place at 105×g for 20 minutes and the supernatant (PRP) is removed. 200 μl of PRP were preincubated, at 37° C. for 10 minutes, together with 30 μl of test substance in a PAP4 aggregometer (BioData). The test substance was dissolved in organic solvent and diluted 1:30 with buffer (50 mM TisHCl, pH 8.0; 90 mM NaCl). Aggregation is triggered with 20 μl of inducer. During the aggregation, stirring takes place at 800 rpm. Arachidonic acid, 5 mg/ml, was used as the inducer.
The values in the table show the concentration of the test substance which was employed in μM and, besides this, the residual activity measured in percent based on the control, which was set to be 100%. The interleukin is additionally indicated in test 4.

adjuvant/arthritis model = test: Test 6: antiarthritic effect in the adjuvant/arthritis model; type: in vivo, rat (Wistar-Lewis); conditions: Rattus norvegicus, po, 408 h, read-out: Test 6 Paw volume (% inhibition); for inhibition in vivo at 25 mg/kg: 25 mg/kg orally
Procedure: Male rats of a Wistar-Lewis strain (Mollegaard/Denmark) were used as experimental animals. The body weight is between 160 and 200 g. Subplantar injection of 0.1 ml of Freund's adjuvant (=6 mg of Mycobacterium butyricum suspension, Difco Lab./Detroit, Mich. USA, per ml of heavy white paraffin oil, Merck, Darmstadt) into the root of the tail resulted, on the 10th to 14th day of the experiment, in immunopathological processes and chronic inflammations, particularly in the form of arthritic and periarthritic symptoms, at other sites in the body (secondary lesions). The animals were fed ad libitum with the standard feed Altromin-R, from Altrogge, Lage, and provided with tap water. The animals were given 60 mg of codein per kg as an analgesic from the 14th day to the end of the experiment. The test substances were administered orally as a CMC suspension, in an injection volume of 1 ml/100 g of body weight, on each day (in all for 17 days), beginning on the day of the adjuvant administration. The volumes of each of the hind paws, and the body weight, were measured on the first and on the 18th day of the experiment. Diminution in the increase of paw volume, as compared with the untreated control group, served as the criterion of activity, with the two hind paws being averaged.

[2] = tested on: tumor cell line 20-10-5S (hybridoma cell line); test: Test 8: Inhibition of tumor cell proliferation; type: cell-based; conditions: 48 h + 16 h tritiated thymidine incorporation; 20-10-5S cells
Procedure: The tumor cell line 20-10-5S (hybridoma cell line, supplied by ATCC (American Type Culture Collection)), which produces an antibody against mouse T cells) was used for determining the antiproliferative property of test substances. The cells were cultured, at 37° C. and 5% C2, under serum-free conditions in CG medium (cell-growth medium=Iscove-ATL (+albumin+transferrin+lipids); from Vitromex, Vilshofen). Only cells which were in the logarithmic phase of growth were used for the test mixture. The test substances were pipetted in various concentrations (from 1 to 50 μM), together with 4×10^3 20-10-5S cells, into round-bottomedmicrotiter plates (total volume with medium, 200 μl). After an incubation time of 48 h (37° C. and 5% CO2), 25 μl of tritiated thymidine (=0.25 μCi/test mixture, specific activity, 23 Ci/mM) were added to the plates. During the subsequent 16 h, the radioactively labeled thymidine was incorporated into the DNA of the growing cells. The samples were filtered off with suction on glass fiber filters and the incorporated radioactivity was measured using a β counter (Beta Plate System 1205 from Wallac).

[3] = tested on: polymorphonuclear leucocytes (PMNL); test: Test 1: Release of proteolytic activity from human PMNL; type: cell-based; conditions: Homo sapiens, PMNL, read-out: Test 1 residual activity (release of proteolytic activity), percent of control
Procedure: Isolation of polymorphonuclear leucocytes (PMNL) from human peripheral blood for carrying out tests 1 and 2 10 ml of human blood were diluted with 10 ml of HBSS (Serva) and underlaid with 15 ml of Lymphoprep (Dr. Molter GmbH, Heidelberg). […] A white ring, composed of mononuclear cells, is located between these two phases. The lowermost phase is composed of erythrocytes which are covered with a white layer of PMNL. The uppermost phase, and also the Lymphoprep and the white ring, were carefully removed using a syringe. The remaining sediment was carefully resuspended in 15 ml of 3% dextran in PM16 (mw: 485,000, Sigma, Deisenhofen). The suspension was then left to stand at room temperature for one hour. During this time, the erythrocytes sedimented while the PMNL remained in the supernatant. The supernatant was removed, diluted with an approximately equal volume of PM16, and centrifuged for 15 minutes at 400×g. Should the PMNL sediment be heavily contaminated with erythrocytes, it is necessary to carry out a hypotonic lysis. To do this, the sediment was resuspended in 750 μl of water. After exactly 15 seconds, the suspension was diluted with approximately 7 ml of PM16 and centrifuged for 10 minutes at 400×g. If necessary, this lysis was repeated once more. Otherwise, the PMNL sediment was resuspended in a suitable medium. 250 μl of PMNL (5·10^6 cells/ml of PBS containing 7.5 mM glucose) were incubated at 37° C. for 20 minutes with 1 μl of test substance. 1 μl of cytochalasin B (5 μg/ml of test mixture) was then added and the mixture was incubated at 37° C. for a further 5 minutes. Following the addition of 1 μl of […] necrosis factor alpha (TNF; 30 ng/ml of test mixture), the incubation was continued for 5 minutes. The release was started using 1 μl of fMLP (10 nmol/l of test mixture). After 60 minutes at 37° C., the reaction was terminated by cooling the samples down to 0° C. The samples were then centrifuged, and the supernatant was removed and frozen down. Cytochalasin B and fMLP were dissolved in DMSO and TNF was diluted with buffer. 50 μl of the supernatant were mixed with 175 μl of buffer (100 mM HEPES, pH 7.5; 500 mM NaCl) in a 96-well microtiter plate. Following the addition of 25 μl of substrate (methoxysuccinyl-[…]-nitroanilide), the extinction of each well was measured at 405 nm after 0, 5, 10, 15, 30 and 60 minutes. […] The interleukin is additionally indicated in test 4.

[4] = Homo sapiens, 100 μM, read-out: Test 5 residual activity (cyclooxygenase-dependent thrombocyte aggregation), percent of control
[5] = 50 mg/kg orally, daily for 17 days, rat
[6] = Homo sapiens, read-out: Test 5 residual activity (cyclooxygenase-dependent thrombocyte aggregation), percent of control

SMILES: CC(C)(C)c1cc(-c2cc(/C=C/P(=O)(O)O)on2)cc(C(C)(C)C)c1O [Example 58, 2-(3-(4-Hydroxy-3,5-di-tert-butylphenyl)isoxazol-5-yl)vinylphosphonic acid]
- activity at 100 µM [1, 4]: 99%

SMILES: CC(=O)O[C@@H](C)[C@@H]1CC(c2cc(C(C)(C)C)c(O)c(C(C)(C)C)c2)=NO1 (relative stereo) [Example 22, 1-(3-(4-Hydroxy-3,5-di-tert-butylphenyl)-2-isoxazolin-5-yl)ethyl acetate]
- inhibition in vivo at 50 mg/kg (adjuvant/arthritis model; [5]): 74%

SMILES: C[C@@H](OP(=O)(Oc1ccccc1)Oc1ccccc1)[C@@H]1CC(c2cc(C(C)(C)C)c(O)c(C(C)(C)C)c2)=NO1 (relative stereo) [Example 85, Diphenyl 1-(3-(4-hydroxy-3,5-di-tert-butylphenyl)-2-isoxazolin-5-yl)ethyl phosphate]
- Test 5 residual activity (cyclooxygenase-dependent thrombocyte aggregation), percent of control ([1]; 100 μM): 94%
- IC50 [2]: < 5 µM

SMILES: CC(C)(C)c1cc(-c2cc(C(C)(C)OCC(=O)O)on2)cc(C(C)(C)C)c1O [Example 34, (1-(3-(4-Hydroxy-3,5-di-tert-butylphenyl)isoxazol-5-yl)-1-methylethoxy)acetic acid]
- activity at 100 µM [1, 4]: 98%

SMILES: CC(=O)O[C@@H](C(=O)O)[C@@H](OC(C)=O)C(=O)NCc1cc(-c2cc(C(C)(C)C)c(O)c(C(C)(C)C)c2)no1 [Example 82, Di-O-acetyl-L-tartaric acid-N-(3-(4-hydroxy-3,5-di-tert-butylphenyl)isoxazol-5-yl)methylamide]
- activity at 100 µM [1, 4]: 93%

SMILES: CC(=O)CC(=O)O[C@H](C)[C@@H]1CC(c2cc(C(C)(C)C)c(O)c(C(C)(C)C)c2)=NO1 (relative stereo) [Example 84, 1-(3-(4-Hydroxy-3,5-di-tert-butylphenyl)-2-isoxazolin-5-yl)ethyl 3-oxobutyrate]
- inhibition in vivo at 25 mg/kg (adjuvant/arthritis model; daily for 17 days, rat): 49%

SMILES: CC(C)(C)c1cc(-c2cc(CNC(=O)[C@@H](N)Cc3ccccc3)on2)cc(C(C)(C)C)c1O [Example 55, L-Phenylalanyl-N-(3-(4-hydroxy-3,5-di-tert-butylphenyl)-isoxazol-5-ylmethyl)amide hydrochloride]
- inhibition in vivo at 50 mg/kg (adjuvant/arthritis model): 47%
- IC50 [2]: < 5 µM

SMILES: CC(C)(C)c1cc(-c2cc(CCC(=O)O)on2)cc(C(C)(C)C)c1O [Example 45, 3-(4-Hydroxy-3,5-di-tert-butylphenyl)isoxazol-5-ylpropionic acid]
- activity at 100 µM [1, 4]: 98%
- IC50 [2]: 5 to 10 µM

SMILES: CC(C)(C)c1cc(-c2cc(CNC(=O)[C@H](O)[C@@H](O)C(=O)O)on2)cc(C(C)(C)C)c1O [Example 83]
- inhibition in vivo at 50 mg/kg (adjuvant/arthritis model; [5]): 39%

SMILES: COC(=O)CCc1cc(-c2cc(C(C)(C)C)c(O)c(C(C)(C)C)c2)no1 [Example 44]
- activity at 10 µM ([1]; Homo sapiens, 10 μM, read-out: Test 5 residual activity (cyclooxygenase-dependent thrombocyte aggregation), percent of control): 99%
- IC50 [2]: 5 to 10 µM

SMILES: CCOC(=O)COC(C)(C)c1cc(-c2cc(C(C)(C)C)c(O)c(C(C)(C)C)c2)no1 [Example 33, Ethyl (1-(3-(4-hydroxy-3,5-di-tert-butylphenyl)isoxazol-5-yl)-1-methylethoxy)acetate]
- IC50 [2]: < 5 µM

SMILES: CCOC(=O)CNC(=O)OCc1cc(-c2cc(C(C)(C)C)c(O)c(C(C)(C)C)c2)no1 [Example 39, N-(3-(4-Hydroxy-3,5-di-tert-butylphenyl)isoxazol-5-ylmethoxycarbonyl)glycine ethyl ester]
- activity at 100 µM [1, 4]: 98%
- IC50 [2]: 30 µM

SMILES: CCOP(=O)(/C=C/c1cc(-c2cc(C(C)(C)C)c(O)c(C(C)(C)C)c2)no1)OCC [Example 57, Diethyl 2-(3-(4-hydroxy-3,5-di-tert-butylphenyl)isoxazol-5-yl)vinylphosphonate]
- activity at 100 µM [1, 4]: 99%
- IC50 [2]: < 5 µM

SMILES: CC(C)(C)c1cc(-c2noc(CO)c2CO)cc(C(C)(C)C)c1O [Example 32]
- activity at 1 µM ([3]; 1 μM): 84%
- activity at 10 µM ([3]; 10 μM): 72%
- activity at 100 µM ([3]; 100 μM): 34%

SMILES: CN(O)C(=O)C(C)(C)OCc1cc(-c2cc(C(C)(C)C)c(O)c(C(C)(C)C)c2)no1 [Example 37, N-Methylhydroxamoyl-2-((3-(4-hydroxy-3,5-di-tert-butylphenyl)isoxazol-5-ylmethoxy)-2-methyl propionate]
- IC50 [2]: < 5 µM

SMILES: CC(C)(C)c1cc(-c2cc(CCCOC(=O)NCC(=O)O)on2)cc(C(C)(C)C)c1O [Example 42, N-(3-(4-Hydroxy-3,5-di-tert-butylphenyl)isoxazol-5-ylpropoxycarbonyl)glycine]
- IC50 [2]: 5 to 10 µM

SMILES: CCC(C)(O)c1cc(-c2cc(C(C)(C)C)c(O)c(C(C)(C)C)c2)no1 (stereo not shown) [Example 31]
- activity at 100 µM [1, 4]: 100%

SMILES: CC(OC(=O)[C@@H](N)Cc1ccc(O)cc1)C1CC(c2cc(C(C)(C)C)c(O)c(C(C)(C)C)c2)=NO1 (mixture of isomers) [Example 88, L-Tyrosyl 1-(3-(3,5-di-tert-butyl-4-hydroxyphenyl)-2-isoxazolin-5-yl)ethyl ester, rac. 5,5'-erythro isomer mixture]
- IC50 [2]: 10 µM

Second part, led by results:

- IC50 [2]: < 5 µM
SMILES: CC(C)(C)c1cc(C2=NOC3(CCC3)C2)cc(C(C)(C)C)c1O [Example 67]
- inhibition in vivo at 50 mg/kg (adjuvant/arthritis model; [5]): 53%

- IC50 [2]: 5 to 10 µM
SMILES: CC(C)(C)c1cc(C2=NOC(C(C)(C)O)C2)cc(C(C)(C)C)c1O (stereo not shown) [Example 69]
- inhibition in vivo at 50 mg/kg (adjuvant/arthritis model; [5]): 83%

- IC50 [2]: < 5 µM
SMILES: CC(C)(C)c1cc(-c2cc(C=O)on2)cc(C(C)(C)C)c1O [Example 66]
- inhibition in vivo at 25 mg/kg (adjuvant/arthritis model; daily for 17 days, rat): 59%

- IC50 [2]: 5 to 10 µM
SMILES: CC(O)Cc1cc(-c2cc(C(C)(C)C)c(O)c(C(C)(C)C)c2)no1 (stereo not shown) [Example 30]
- inhibition in vivo at 50 mg/kg (adjuvant/arthritis model; [5]): 63%

- IC50 [2]: 8 to 15 µM
SMILES: CC(O)CC1CC(c2cc(C(C)(C)C)c(O)c(C(C)(C)C)c2)=NO1 (stereo not shown) [Example 15]
- inhibition in vivo at 50 mg/kg (adjuvant/arthritis model; [5]): 60%

- IC50 [2]: < 5 µM
SMILES: CC(C)(C)c1cc(C2=NOC(C(N)=O)C2)cc(C(C)(C)C)c1O (stereo not shown) [Example 11]

- IC50 [2]: 30 µM
SMILES: CC(C)(C)c1cc(C2=NOC(COC(=O)NCC(=O)O)C2)cc(C(C)(C)C)c1O (stereo not shown) [Example 4, N-(3-(4-Hydroxy-3,5-di-tert-butylphenyl)-2-isoxazolin-5-ylmethoxycarbonyl)glycine]

- IC50 [2]: 5 to 10 µM
SMILES: C=CCC(O)CC1CC(c2cc(C(C)(C)C)c(O)c(C(C)(C)C)c2)=NO1 (stereo not shown) [Example 79]
- activity at 100 µM [1, 4]: 96%

- IC50 [2]: 30 µM
SMILES: CC(C)(C)c1cc(C2=NO[C@H]([C@H]3CO3)C2)cc(C(C)(C)C)c1O (relative stereo) [Example 16]

- IC50 [2]: < 5 µM
SMILES: CC(C)(C)c1cc(-c2cc(C(C)(C)O)on2)cc(C(C)(C)C)c1O [Example 29]

- IC50 [2]: 5 to 10 µM
SMILES: CC(O)CC(O)CC1CC(c2cc(C(C)(C)C)c(O)c(C(C)(C)C)c2)=NO1 (stereo not shown) [Example 78]
- activity at 50 µM [1, 6]: 94%

- IC50 [2]: 5 to 10 µM
SMILES: C=CCC(O)CC1CC(c2cc(C(C)(C)C)c(O)c(C(C)(C)C)c2)=NO1 (stereo not shown) [Example 80]
- activity at 50 µM [1, 6]: 97%

- IC50 [2]: 8 to 15 µM
SMILES: CC(C)(C)c1cc(C2=NO[C@H]([C@@H]3CO3)C2)cc(C(C)(C)C)c1O (relative stereo) [Example 17]

- IC50 [2]: 10 µM
SMILES: CC(C)(OCC1CC(c2cc(C(C)(C)C)c(O)c(C(C)(C)C)c2)=NO1)C(=O)O (stereo not shown) [Example 3, 2-(3-(4-Hydroxy-3,5-di-tert-butylphenyl)-2-isoxazolin-5-ylmethoxy)methylpropionic acid]
- activity at 100 µM [1, 4]: 98%
